One assay addresses T1, BRD3 BD1 (Homo sapiens, UniProt Q15059).
T1 construct: BRD2 BD1, BRD3 BD1 and BRD4 BD1 (Cisbio); purchased Cisbio
As to the kind of experiment: Binding assay, BRD3 BD1 to acetylated histone H4 Peptide-Biotin (EPIgeneous Binding Domain Kit A). The settings on record: for inhibition at 0.3 µM: test compound at 300 nmol/L, read-out: Binding inhibition percentage BRD3 BD1. In outline:
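HTRF competition: bromodomain protein (added at 20 nmol/L) and biotinylated tetra-acetyl H4(1-25) peptide (added at 25 nmol/L) were incubated with compound, streptavidin-d2 and anti-GST Eu cryptate for 20 h at room temperature. Inhibition came from the 665/620 nm ratio relative to DMSO; IC50 by four-parameter fit; some compounds were tested only at 300 nmol/L final.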

The target in a further assay is T2, BRD3 BD2 (Homo sapiens, UniProt Q15059).
T2 construct: BRD2 BD2, BRD3 BD2 and BRD4 BD2 (Cisbio); purchased Cisbio
T2 sequence (Q15059 306-415 limits assumed): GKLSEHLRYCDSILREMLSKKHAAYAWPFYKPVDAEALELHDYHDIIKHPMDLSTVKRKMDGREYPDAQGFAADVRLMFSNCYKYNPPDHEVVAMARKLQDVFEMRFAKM
As to the kind of experiment: Binding assay, BRD3 BD2 to acetylated histone H4 Peptide-Biotin (EPIgeneous Binding Domain Kit B). Particulars: for inhibition at 0.3 µM: test compound at 300 nmol/L, read-out: Binding inhibition percentage BRD3 BD2. The essentials: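 HTRF binding of GST-tagged BD2 (20 nmol/L working stock) to biotinylated acetyl-histone H4 peptide (250 nmol/L working stock), using streptavidin-XL665 and anti-GST Eu cryptate. Incubated 20 h at room temperature; 665/620 nm ratio versus DMSO gives % inhibition; IC50 by four-parameter fit, or % inhibition at 300 nmol/L.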

In assay [1] the test system is human undifferentiated thymoma cell line Ty-82. Nature of the assay: Cell growth test (Cell Titer Glo) Ty-82. The settings on record: TY82, 3 to 5 days. It is filed as cell-based. The source says: (§1) The human undifferentiated thymoma cell line Ty-82 (JCRB), the human acute myeloid leukemia cell lines MV4-11 (ATCC), MOLM-13 (ATCC) and RS4-11 (ATCC), the human lymphoma cell line Raji (JCRB), the human cervical epidermoid carcinoma cell line Hela (JCRB), the human lung adenocarcinoma cell line A549 (ATCC), the human colon cancer cell lines DLD1 (DS Pharma) and HCT116 (DS Pharma), and the human pancreatic cancer cell line MIAPACA-2 (ATCC) were used to carry out a cell growth test.
(§2) Ty-82, MV4-11, MOLM-13, RS4-11, Raji and DLD1 were each seeded in a well plate, in which Roswell Park Memorial Institute (RPMI)-1640 medium supplemented with penicillin/streptomycin and fetal bovine serum (FBS) with a final concentration of 10% was placed. Hela was seeded in Dulbecco's Modified Eagle's medium (DMEM) supplemented with penicillin/streptomycin and FBS with a final concentration of 10%. A549 and MIAPACA-2 were each seeded in a well plate, in which Minimum Essential Medium (MEM) supplemented with penicillin/streptomycin and FBS with a final concentration of 10% was placed. HCT116 was seeded in a well plate, in which McCoy's 5A medium supplemented with penicillin/streptomycin and FBS with a final concentration of 10% was placed.
(§3) Thereafter, a medium containing a test compound serially diluted with DMSO, or DMSO, was added to each well of the plate, in which the cells had been seeded, and the obtained mixture was then cultured under conditions of 37° C. and 5% CO2 for 3 to 5 days. Cell Titer Glo reaction solution (Promega) was added to the culture, and the amount of luminescence was then measured using Envision plate reader (PerkinElmer). Since the amount of luminescence is in proportion to the concentration of adenosine triphosphate (ATP) in cells, the amount of luminescence was used as an indicator of the number of living cells. The growth inhibition percentage of the test compound in each concentration was calculated according to the following equation. Growth inhibition percentage (%)=(amount of luminescence in test compound−added well)/(amount of luminescence in DMSO−added well)×100
(§4) The growth inhibition percentage of the test compound in each concentration was plotted by performing a non-linear regression analysis [(log (inhibitor) vs. response—Variable slope (four parameters)], using Graphpad prism 5, and a 50% growth inhibitory concentration [GI50 (nmol/L)] was then calculated.
In general terms: ATP-based viability assays read luminescence as a measure of living cells.

For assay [2], the system named is human acute myeloid leukemia cell line MV4-11. As to the kind of experiment: Cell growth test (Cell Titer Glo) MV4-11. It counts as cell-based. The settings on record: 3 to 5 days.
Description: as §1, §2, §3, §4

Assay [3] deals with human acute myeloid leukemia cell line MOLM-13. Nature of the assay: Cell growth test (Cell Titer Glo) MOLM-13. The settings on record: 3 to 5 days. It is filed as cell-based.
Description: as §1, §2, §3, §4

In assay [4] the test system is human acute myeloid leukemia cell line RS4-11. As to the kind of experiment: Cell growth test (Cell Titer Glo) RS4-11. It counts as cell-based. Particulars: RS4-11, Acute myeloid leukemia, 3 to 5 days.
Description: as §1
(§5) Ty-82, MV4-11, MOLM-13, RS4-11, Raji and DLD1 were each seeded in a well plate, in which Roswell Park Memorial Institute (RPMI)-1640 medium supplemented with penicillin/streptomycin and fetal bovine serum (FBS) with a final concentration of 10% was placed. Hela was seeded in Dulbecco's Modified Eagle's medium (DMEM) supplemented with penicillin/streptomycin and FBS with a final concentration of 10%. A549 and MIAPACA-2 were each seeded in a well plate, in which Minimum Essential Medium (MEM) supplemented with penicillin/streptomycin and FBS with a final concentration of 10% was placed. […]
as §3, with “well)×100 […]” for “well)×100”

Assay [5] has as its system human lymphoma cell line Raji. As to the kind of experiment: Cell growth test (Cell Titer Glo) Raji. It counts as cell-based. The settings on record: 3 to 5 days.
Description: as §1, §5
as §3, with “well)×100 […]” for “well)×100”

Assay [6] has as its system human cervical epidermoid carcinoma cell line Hela. Nature of the assay: Cell growth test (Cell Titer Glo) Hela. It is filed as cell-based. The settings on record: 3 to 5 days.
Description: as §1, §5
as §3, with “well)×100 […]” for “well)×100”

Assay [7] relates to human lung adenocarcinoma cell line A549. As to the kind of experiment: Cell growth test (Cell Titer Glo) A549. The settings on record: 3 to 5 days. It is filed as cell-based.
Description: as §1, §5
as §3, with “well)×100 […]” for “well)×100”

For assay [8], the system named is human colon cancer cell line DLD1. Nature of the assay: Cell growth test (Cell Titer Glo) DLD1. It is filed as cell-based. The settings on record: DLD-1, 3 to 5 days.
Description: as §1, §5
as §3, with “well)×100 […]” for “well)×100”

Assay [9] concerns human colon cancer cell line HCT116. As to the kind of experiment: Cell growth test (Cell Titer Glo) HCT116. It is filed as cell-based. Particulars: HCT-116, 3 to 5 days.
Description: as §1, §5
as §3, with “well)×100 […]” for “well)×100”

The subject of assay [10] is human pancreatic cancer cell line MIAPACA-2. As to the kind of experiment: Cell growth test (Cell Titer Glo) MIAPACA-2. It counts as cell-based. Particulars: MIA PaCa-2, MIAPACA-2, Pancreatic cancer, 3 to 5 days.
Description: as §1, §5
as §3, with “well)×100 […]” for “well)×100”

Among the data in patent publication US10987349B2, “Antitumor agent and bromodomain inhibitor” (FUJIFILM Corporation, priority 2016, dated 2021) are IC50, inhibition and GI50 values, retold here.

For orientation: IC50 means the midpoint of a concentration-inhibition curve. The term inhibition denotes how much of the control response was suppressed. As usually defined, the GI50 is the concentration that inhibits growth by half. Low readings indicate more potent growth inhibition, high ones less potent growth inhibition.

Molecules are shown by their SMILES.

T1 sequence (Q15059 34-140 limits assumed): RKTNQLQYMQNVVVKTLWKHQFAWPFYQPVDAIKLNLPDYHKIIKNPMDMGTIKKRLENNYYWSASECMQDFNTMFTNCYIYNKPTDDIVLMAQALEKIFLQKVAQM

For `CCn1c(=O)cc(C2CCN(C)CC2)c2cc(C(=O)N(C)c3ccc(C)cc3)ccc21` [Example 14, 1-Ethyl-N-methyl-N-(4-methylphenyl)-4-(1-methylpiperidin-4-yl)-2-oxo-1,2-dihydroquinoline-6-carboxamide], the IC50 on BRD3 BD1 came out at 4 nM; on BRD3 BD2 it was 70 nM. The inhibition at 0.3 µM was 94% at BRD3 BD1 and 83% on BRD3 BD2. The concentration for 50% growth inhibition (GI50) in assay [1] came to 12 nM; in assay [2], 16 nM; in assay [3] it was 32 nM; in [4] it was 66 nM; in assay [5] it was 60 nM; in assay [6] it was 570 nM. Moreover, the GI50 in [7] is 665 nM; in assay [8] it was 361 nM; in assay [9], 241 nM; in [10], 1420 nM.
As for `CCn1c(=O)cc(C2CCN(C)CC2)c2cc(C(=O)N(C)c3ccc4c(c3)CCC4)ccc21` [Example 17, N-(2,3-dihydro-1H-inden-5-yl)-1-ethyl-N-methyl-4-(1-methylpiperidin-4-yl)-2-oxo-1,2-dihydroquinoline-6-carboxamide], the half-maximal inhibitory concentration (IC50) at BRD3 BD1 amounted to 3 nM; on BRD3 BD2, 14 nM. Further, the inhibition at 0.3 µM at BRD3 BD1 is 94%; at BRD3 BD2 it was 91%. The GI50 turned out to be 6 nM in assay [1]; 8 nM in assay [2]; 16 nM in assay [3]; 30 nM in [4]; 23 nM in assay [5]; 314 nM in assay [6]. The concentration for 50% growth inhibition (GI50) in [7] stood at 292 nM; in assay [8], 165 nM; in assay [9], 116 nM; in assay [10], 307 nM.
As for `CCn1c(=O)cc(N2CCOCC2)c2cc(-n3c(-c4ccc(Cl)cc4)c[nH]c3=O)ccc21` [Example 245, 6-(5-(4-chlorophenyl)-2-oxo-2,3-dihydro-1H-imidazol-1-yl)-1-ethyl-4-(morpholin-4-yl)quinolin-2(1H)-one], the IC50 turned out to be 37 nM at BRD3 BD1 and 4 nM at BRD3 BD2. The values for the inhibition at 0.3 µM at BRD3 BD1 and at BRD3 BD2 were 90% and 92%, respectively. For the same compound, the GI50 in assay [1] was found to be 10 nM; in [2], 15 nM; in [3], 37 nM; in [4], 85 nM; in assay [5] it was 97 nM; in assay [6], 1860 nM. For the same compound, the GI50 in assay [7] stood at 1740 nM; in assay [8], 1340 nM; in [9], 628 nM; in assay [10], 760 nM.
